According to patent US20230265151A1, “GIP/GLP1 CO-AGONIST COMPOUNDS” (priority 2020, published 2023):
Like-named read-outs stand apart in the source and are kept apart here. *1 amine or outer side, *2 acyl side, *3 side chain or, on linkers, in order; H or OH if unused. Where a SMILES comes first, the peptide text is derived from it. Side-chain parts run from the residue outwards. [ ]: non-standard residue; d: D form. The star is where a group is joined. αMePhe(2-F) = C[C@](N)(Cc1ccccc1F)C(=O)O; γGlu = O=C(O)[C@H](CCC(=O)[*:2])N[*:1]; C14 diacid = O=C(O)CCCCCCCCCCCCC(=O)*; αMeY = C[C@](N)(Cc1ccc(O)cc1)C(=O)O; 4Pal = N[C@@H](Cc1ccncc1)C(=O)O; αMeL = CC(C)C[C@](C)(N)C(=O)O; Orn = NCCC[C@H](N)C(=O)O; AEEA = NCCOCCOCC(=O)O; Aib = CC(C)(N)C(=O)O

Tests used:
Type in all cases: cell-based
[1] = molecular target: T1, hGCGR (Homo sapiens, UniProt P47871); experiment: Functional cAMP formation (HTRF) in HEK-293 clonal cells expressing hGCGR, 0.1% bovine casein, without or with 1.0% human serum albumin; details: geometric mean
T1 construct: expressed in transfected cells
Method in brief: (§1)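 Readings of the HTRF 665/620 nm ratio, which falls as cAMP rises, were converted to nM cAMP using a standard curve after 30 min peptide exposure at 37° C.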

[2] = molecular target: T2, hGIPR (Homo sapiens, UniProt P48546); experiment: Functional cAMP formation (HTRF) in HEK-293 clonal cells expressing hGIPR, 0.1% bovine casein, without or with 1.0% human serum albumin; details: for EC50: geometric mean
T2 construct: expressed in transfected cells
T2 sequence (P48546 22-466): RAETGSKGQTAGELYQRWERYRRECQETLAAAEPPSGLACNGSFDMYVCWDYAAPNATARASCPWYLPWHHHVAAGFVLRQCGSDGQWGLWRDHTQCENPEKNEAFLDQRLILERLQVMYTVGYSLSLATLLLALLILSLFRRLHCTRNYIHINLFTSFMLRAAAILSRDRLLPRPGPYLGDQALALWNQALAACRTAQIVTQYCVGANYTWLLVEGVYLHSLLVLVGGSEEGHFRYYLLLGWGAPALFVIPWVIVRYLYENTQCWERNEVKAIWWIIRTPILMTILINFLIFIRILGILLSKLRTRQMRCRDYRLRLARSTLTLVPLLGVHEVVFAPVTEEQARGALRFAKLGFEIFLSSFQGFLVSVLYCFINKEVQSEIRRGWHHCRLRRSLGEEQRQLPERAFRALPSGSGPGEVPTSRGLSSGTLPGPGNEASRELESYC
Method in brief: as §1

[3] = molecular target: hGLP-1R (Homo sapiens, UniProt P43220); experiment: Functional cAMP formation (HTRF) in HEK-293 clonal cells expressing hGLP-1R, 0.1% bovine casein, without or with 1.0% human serum albumin; parameters: expressed in transfected cells; details: for EC50: cAMP, 0.1% bovine casein (no human serum albumin), geometric mean
Method in brief: as §1

[4] = cAMP, incubated at 37° C., 0.1% bovine casein (no human serum albumin), read-out: hGCGR EC50, nM (SEM, n)
[5] = HEK293, percent of maximal response to GLP-1(7-36)NH2, 37° C., 0.1% bovine casein, arithmetic mean, read-out: hGLP-1R Emax, % ± SEM
[6] = incubated at 37° C., read-out: hGLP-1R EC50, nM (SEM, n)
[7] = hGCGR EC50, nM (SEM, n), 0.1% bovine casein and 1.0% human serum albumin, 37° C.
[8] = hGCGR EC50, nM (SEM, n), cAMP, 37° C., 0.1% bovine casein (no human serum albumin)
[9] = HEK293, read-out: hGIPR Emax, % ± SEM, 0.1% bovine casein and 1.0% human serum albumin, 37° C., percent of maximal response to GIP(1-42)NH2
[10] = HEK293, read-out: hGIPR Emax, % ± SEM, cAMP, 37° C., 0.1% bovine casein, percent of maximal response to GIP(1-42)NH2, arithmetic mean
[11] = hGIPR EC50, nM (SEM, n), cAMP, 37° C., 0.1% bovine casein (no human serum albumin)
[12] = HEK293, read-out: hGLP-1R Emax, % ± SEM, 0.1% bovine casein and 1.0% human serum albumin, 37° C., percent of maximal response to GLP-1(7-36)NH2
[13] = hGLP-1R EC50, nM (SEM, n), 37° C.

T1 sequence (P47871 26-477): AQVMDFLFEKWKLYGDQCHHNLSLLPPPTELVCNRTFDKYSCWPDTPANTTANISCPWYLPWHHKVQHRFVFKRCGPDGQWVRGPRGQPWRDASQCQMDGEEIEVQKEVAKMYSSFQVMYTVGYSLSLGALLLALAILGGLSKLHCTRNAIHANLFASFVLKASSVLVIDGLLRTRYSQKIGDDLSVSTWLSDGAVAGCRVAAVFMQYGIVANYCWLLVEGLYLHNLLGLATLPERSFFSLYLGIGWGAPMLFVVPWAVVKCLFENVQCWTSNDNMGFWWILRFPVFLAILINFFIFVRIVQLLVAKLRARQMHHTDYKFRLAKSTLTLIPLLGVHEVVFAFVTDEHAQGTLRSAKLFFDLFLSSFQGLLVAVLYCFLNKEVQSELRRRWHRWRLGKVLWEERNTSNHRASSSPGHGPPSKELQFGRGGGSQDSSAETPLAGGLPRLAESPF
Sequence of hGLP-1R (P43220 24-463): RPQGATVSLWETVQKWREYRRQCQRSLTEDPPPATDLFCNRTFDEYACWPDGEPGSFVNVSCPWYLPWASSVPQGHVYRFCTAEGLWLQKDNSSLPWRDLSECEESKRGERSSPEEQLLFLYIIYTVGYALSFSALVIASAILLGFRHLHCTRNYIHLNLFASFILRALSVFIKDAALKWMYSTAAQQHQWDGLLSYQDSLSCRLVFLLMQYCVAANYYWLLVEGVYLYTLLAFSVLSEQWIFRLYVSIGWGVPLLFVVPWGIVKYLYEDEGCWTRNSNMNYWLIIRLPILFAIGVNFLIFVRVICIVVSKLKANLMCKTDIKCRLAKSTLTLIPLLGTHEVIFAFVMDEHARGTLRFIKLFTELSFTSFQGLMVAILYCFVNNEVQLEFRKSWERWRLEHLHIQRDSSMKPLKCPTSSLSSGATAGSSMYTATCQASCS

SMILES	EC50 [1, 4] [nM]	Emax ([2]; HEK293, percent of maximal response to GIP(1-42)NH2, 37° C., 0.1% bovine casein, arithmetic mean, read-out: hGIPR Emax, % ± SEM) [%]	EC50 ([2]; cAMP, incubated at 37° C., 0.1% bovine casein (no human serum albumin), read-out: hGIPR EC50, nM (SEM, n)) [nM]	Emax [3, 5] [%]	EC50 [3, 6] [nM]	EC50 [1, 7] [nM]	EC50 [1, 8] [nM]	Emax [2, 9] [%]	Emax [2, 10] [%]	EC50 ([2]; hGIPR EC50, nM (SEM, n), 0.1% bovine casein and 1.0% human serum albumin, 37° C.) [nM]	EC50 [2, 11] [nM]	Emax [3, 12] [%]	EC50 [3, 13] [nM]	Emax ([3]; HEK293, read-out: hGLP-1R Emax, % ± SEM, cAMP, 37° C., 0.1% bovine casein, percent of maximal response to GLP-1(7-36)NH2, arithmetic mean) [%]	EC50 ([1]; 0.1% bovine casein and 1.0% human serum albumin, 37° C., read-out: hGCGR EC50, nM (SEM, n)) [nM]	Emax ([2]; HEK293, 0.1% bovine casein and 1.0% human serum albumin, 37° C., percent of maximal response to GIP(1-42)NH2, read-out: hGIPR Emax, % ± SEM) [%]	Emax ([3]; HEK293, 0.1% bovine casein and 1.0% human serum albumin, 37° C., percent of maximal response to GLP-1(7-36)NH2, read-out: hGLP-1R Emax, % ± SEM) [%]
CC[C@H](C)[C@H](NC(=O)[C@H](CC(C)C)NC(=O)[C@](C)(Cc1ccc(O)cc1)NC(=O)[C@@H](CCC(=O)O)NC(=O)[C@@H](NC(=O)[C@H](Cc1ccccc1)NC(=O)[C@H](CCC(=O)O)NC(=O)C(C)(C)NC(=O)[C@H](CCC(N)=O)NC(=O)[C@H](C)NC(=O)[C@H](CCCCNC(=O)COCCOCCNC(=O)COCCOCCNC(=O)CC[C@H](NC(=O)CCCCCCCCCCCCC(=O)O)C(=O)O)NC(=O)[C@H](CCCN)NC(=O)[C@H](CC(=O)O)NC(=O)[C@H](CC(C)C)NC(=O)[C@](C)(CC(C)C)NC(=O)[C@@H](NC(=O)[C@H](CO)NC(=O)[C@H](Cc1cccs1)NC(=O)[C@H](CC(=O)O)NC(=O)[C@H](CO)NC(=O)[C@@H](NC(=O)[C@](C)(Cc1ccccc1F)NC(=O)[C@@H](NC(=O)CNC(=O)[C@H](CCC(=O)O)NC(=O)C(C)(C)NC(=O)[C@@H](N)Cc1ccc(O)cc1)[C@@H](C)O)[C@@H](C)O)[C@@H](C)CC)[C@@H](C)CC)C(=O)N[C@@H](CCC(=O)O)C(=O)NCC(=O)NCC(=O)N[C@@H](CCCCNC(=O)COCCOCCNC(=O)COCCOCCNC(=O)CC[C@H](NC(=O)CCCCCCCCCCCCC(=O)O)C(=O)O)C(=O)N[C@@H](CO)C(=O)N[C@@H](CO)C(=O)NCC(=O)N[C@@H](C)C(=O)N1CCC[C@H]1C(=O)N1CCC[C@H]1C(=O)N1CCC[C@H]1C(=O)N[C@@H](CO)C(N)=O [Example 145]	> 9950	74.8	0.0286	95.1	0.555	–	–	–	–	–	–	–	–	–	–	–	–
CC[C@H](C)[C@H](NC(=O)[C@H](CCCN)NC(=O)[C@H](CC(=O)O)NC(=O)[C@H](CC(C)C)NC(=O)[C@](C)(CC(C)C)NC(=O)[C@@H](NC(=O)[C@](C)(CO)NC(=O)[C@H](Cc1ccc(O)cc1)NC(=O)[C@H](CC(=O)O)NC(=O)[C@H](CO)NC(=O)[C@@H](NC(=O)[C@](C)(Cc1ccccc1F)NC(=O)[C@@H](NC(=O)CNC(=O)[C@H](CCC(=O)O)NC(=O)C(C)(C)NC(=O)[C@@H](N)Cc1ccc(O)cc1)[C@@H](C)O)[C@@H](C)O)[C@@H](C)CC)C(=O)N[C@@H](C)C(=O)N[C@@H](CCC(N)=O)C(=O)NC(C)(C)C(=O)N[C@@H](CCC(=O)O)C(=O)N[C@@H](Cc1ccccc1)C(=O)N[C@H](C(=O)N[C@@H](CCCCNC(=O)COCCOCCNC(=O)COCCOCCNC(=O)CC[C@H](NC(=O)CCCCCCCCCOc1ccc(C(=O)O)cc1)C(=O)O)C(=O)N[C@@](C)(Cc1ccc(O)cc1)C(=O)N[C@@H](CC(C)C)C(=O)N[C@H](C(=O)N[C@@H](CCCCNC(=O)COCCOCCNC(=O)COCCOCCNC(=O)CC[C@H](NC(=O)CCCCCCCCCOc1ccc(C(=O)O)cc1)C(=O)O)C(=O)NCC(=O)NCC(=O)N1CCC[C@H]1C(=O)N[C@@H](CO)C(=O)N[C@@H](CO)C(=O)NCC(=O)N[C@@H](C)C(=O)N1CCC[C@H]1C(=O)N1CCC[C@H]1C(=O)N1CCC[C@H]1C(=O)N[C@@H](CO)C(N)=O)[C@@H](C)CC)[C@@H](C)CC [Example 307]	–	–	–	–	–	> 9950	> 9950	81.8	105	1.66	0.0292	109	0.376	–	–	–	–
CC[C@H](C)[C@H](NC(=O)[C@H](CC(C)C)NC(=O)[C@](C)(Cc1ccc(O)cc1)NC(=O)[C@@H](CCC(=O)O)NC(=O)[C@@H](NC(=O)[C@H](Cc1ccccc1)NC(=O)[C@H](CCCCNC(=O)COCCOCCNC(=O)COCCOCCNC(=O)CC[C@H](NC(=O)CCCCCCCCCOc1ccc(C(=O)O)cc1)C(=O)O)NC(=O)C(C)(C)NC(=O)[C@H](CCC(N)=O)NC(=O)[C@H](C)NC(=O)[C@H](CCCCNC(=O)COCCOCCNC(=O)COCCOCCNC(=O)CC[C@H](NC(=O)CCCCCCCCCOc1ccc(C(=O)O)cc1)C(=O)O)NC(=O)[C@H](CCCN)NC(=O)[C@H](CC(=O)O)NC(=O)[C@H](CC(C)C)NC(=O)[C@](C)(CC(C)C)NC(=O)[C@@H](NC(=O)C(C)(C)NC(=O)[C@@H](NC(=O)[C@H](CC(=O)O)NC(=O)[C@H](CO)NC(=O)[C@@H](NC(=O)[C@](C)(Cc1ccccc1F)NC(=O)[C@@H](NC(=O)CNC(=O)[C@H](CCC(=O)O)NC(=O)C(C)(C)NC(=O)[C@@H](N)Cc1ccc(O)cc1)[C@@H](C)O)[C@@H](C)O)C(C)C)[C@@H](C)CC)[C@@H](C)CC)C(=O)N[C@@H](CCC(=O)O)C(=O)NCC(=O)NCC(=O)N1CCC[C@H]1C(=O)N[C@@H](CO)C(=O)N[C@@H](CO)C(=O)NCC(=O)N[C@@H](C)C(=O)N1CCC[C@H]1C(=O)N1CCC[C@H]1C(=O)N1CCC[C@H]1C(=O)N[C@@H](CO)C(N)=O [Example 319]	–	–	–	–	–	> 9950	> 9950	92.5	98.1	–	0.0196	114	0.18	100	–	–	–
CC[C@H](C)[C@H](NC(=O)CNC(=O)[C@H](Cc1ccncc1)NC(=O)[C@H](CC(=O)O)NC(=O)[C@H](CO)NC(=O)[C@@H](NC(=O)[C@](C)(Cc1ccccc1F)NC(=O)[C@@H](NC(=O)CNC(=O)[C@H](CCC(=O)O)NC(=O)C(C)(C)NC(=O)[C@@H](N)Cc1ccc(O)cc1)[C@@H](C)O)[C@@H](C)O)C(=O)N[C@@](C)(CC(C)C)C(=O)N[C@@H](CC(C)C)C(=O)N[C@@H](CC(=O)O)C(=O)N[C@@H](CCCN)C(=O)N[C@@H](CCCCNC(=O)COCCOCCNC(=O)COCCOCCNC(=O)CC[C@H](NC(=O)CCCCCCCCCCCCC(=O)O)C(=O)O)C(=O)N[C@@H](C)C(=O)N[C@@H](CCC(N)=O)C(=O)NC(C)(C)C(=O)N[C@@H](CCC(=O)O)C(=O)N[C@@H](Cc1ccccc1)C(=O)N[C@H](C(=O)N[C@H](CCC(=O)O)C(=O)N[C@@](C)(Cc1ccc(O)cc1)C(=O)N[C@@H](CC(C)C)C(=O)N[C@H](C(=O)N[C@@H](CCC(=O)O)C(=O)NCC(=O)NCC(=O)N[C@@H](CCCCNC(=O)COCCOCCNC(=O)COCCOCCNC(=O)CC[C@H](NC(=O)CCCCCCCCCCCCC(=O)O)C(=O)O)C(=O)N[C@@H](CO)C(=O)N[C@@H](CO)C(=O)NCC(=O)N[C@@H](C)C(=O)N1CCC[C@H]1C(=O)N1CCC[C@H]1C(=O)N1CCC[C@H]1C(=O)N[C@@H](CO)C(N)=O)[C@@H](C)CC)[C@@H](C)CC [Example 100] (H-Y[Aib]EGT[αMePhe(2-F)]TSD[4Pal]GI[αMeL]LD[Orn]K([AEEA-AEEA-γGlu-C14 diacid])AQ[Aib]EFI[dE][αMeY]LIEGGK([AEEA-AEEA-γGlu-C14 diacid])SSGAPPPS-NH2; N-terminus assumed)	> 9950	–	–	111	11.4	–	–	–	–	–	–	–	–	–	> 9950	98.3	123
